17 compounds from US5603755A, “Preventive agent for fouling organisms” (Ihara Chemical Industry Co., Ltd., priority 1994, dated 1997) can be followed below.

The nature of data set [1]: in vivo. Conditions: rat, po.
Data set [2] concerns Balanus amphitrite. The data set is described as follows: whole plant or invertebrate. Particulars: for mortality at 0.1 ppm: Amphibalanus amphitrite, read-out: Mortality rate. On the procedure: The nauplii of Balanus amphitrite, hatched in a natural sea water sterilized by filtration were tamed with a diatom feed to convert them into cypris larvae (settling stage larvae). Ten of these cypris larvae and 4 ml of a natural sea water sterilized by filtration were placed in a laboratory dish having a diameter of 3 cm. 10 mg of a present agent compound was made into 1 g of an emulsion with an emulsifier consisting of cyclohexanone and Tween 80 (a trade name of Kao Atlas Co., Ltd.), and the emulsion was diluted to a given concentration of present agent compound with an artificial sea water. 1 ml of the diluted solution was added into the above laboratory dish. The laboratory dish was allowed to stand in a thermostat of 20° C. for 24 hours, and the number of dead cypris larvae was examined. This test was repeated three times, and the mortality rate of Balanus amphitrite at a given concentration of present agent compound was determined.
A test for mortality rate was conducted in the same manner as in Test 1 except that bis(tributyltin) oxide (hereinafter referred to simply as "TBTO" in some cases) was used as a test compound in place of the present agent compound.
Tests for mortality rate were conducted in the same manner as in Tests 1-10 except that the present agent compounds were changed to those shown in Table 4.
Tests for mortality rate were conducted in the same manner as in Tests 1-10 except that the present agent compounds were changed to those shown in Table 6.

Broadly, the LD50 is the dose expected to kill half of the subjects tested. `N#CC(C(=O)c1ccccc1Cl)=C1NC(c2ccccc2)=CS1` [3-(2-chlorophenyl)-2-(4-phenyl-2,3-dihydrothiazole-2-ylidene)-3-oxopropionitrile] came in with an LD50 in data set [1] of at least 5000 mg/kg. Regarding `CCC[CH2][Sn]([CH2]CCC)([CH2]CCC)[O][Sn]([CH2]CCC)([CH2]CCC)[CH2]CCC` [TBTO, bis(tributyltin) oxide, reference compound], in data set [2] (0.1 ppm, cypris larvae, 20° C., 24 hours (Table 1)), the Mortality rate came out at 50%. One may read the mortality as the share of the test organisms that died. As for `N#CC(=C(O)c1ccccc1Cl)c1nc(-c2ccccc2)cs1` [Test 1], the mortality at 0.1 ppm in data set [2] (24 h) was 100%. The same measure, in the same setting: in the case of `CC(C)(C)c1csc(C(C#N)=C(O)c2ccccc2Cl)n1` [Test 2] it was 100%. Turning to `Cc1ccccc1-c1csc(C(C#N)=C(O)c2ccccc2Br)n1` [Test 3], the mortality at 0.1 ppm in data set [2] (24 h) came to 100%. On the same count and under the same terms, then `Cc1ccccc1-c1csc(C(C#N)=C(O)c2ccccc2I)n1` [Test 4], with 100%; and `N#CC(=C(O)c1ccccc1Cl)c1nc(-c2ccccc2Cl)cs1` [Test 5], with 100%; and `N#CC(=C(O)c1ccccc1Cl)c1nc(-c2ccccc2F)cs1` [Test 6], with 100%. In the case of `N#CC(=C(O)c1c(F)cccc1Cl)c1nc(-c2ccccc2F)cs1` [Test 7], the mortality at 0.1 ppm in data set [2] (24 h) was 100%. In data set [2] (barnacle, in vivo, 24 h), `CC(=O)OC(=C(C#N)c1nc(-c2ccccc2)cs1)c1ccccc1Cl` [Test 13] yielded a Mortality rate of 100%.

As for `Cc1ccc(C(=O)OC(=C(C#N)c2nc(-c3ccccc3)cs2)c2ccccc2Cl)cc1` [Test 14], in data set [2] (barnacle, in vivo, 24 h), the Mortality rate was 100%. In the case of `CCCCC(=O)OC(=C(C#N)c1nc(-c2ccccc2)cs1)c1ccccc1Cl` [Test 15], the Mortality rate in data set [2] (barnacle, in vivo, 24 h) worked out at 100%. In data set [2] (barnacle, in vivo, 24 h), `N#CC(=C(OC(=O)c1ccccc1)c1ccccc1Cl)c1nc(-c2ccccc2)cs1` [Test 16] displayed a Mortality rate of 100%. Take `CS(=O)(=O)OC(=C(C#N)c1nc(-c2ccccc2)cs1)c1ccccc1Cl` [Test 17]: the “Mortality rate” value in data set [2] (barnacle, in vivo, 24 h) was determined as 100%. `Cc1ccc(S(=O)(=O)OC(=C(C#N)c2nc(-c3ccccc3)cs2)c2ccccc2Cl)cc1` [Test 18]: the “Mortality rate” value in data set [2] (barnacle, in vivo, 24 h) was 100%. `CCCCS(=O)(=O)OC(=C(C#N)c1nc(-c2ccccc2)cs1)c1ccccc1Cl` [Test 19]: the “Mortality rate” value in data set [2] (barnacle, in vivo, 24 h) is on record as 100%. `N#CC(=C(OS(=O)(=O)c1ccccc1)c1ccccc1Cl)c1nc(-c2ccccc2)cs1` [Test 20]: the “Mortality rate” value in data set [2] (barnacle, in vivo, 24 h) is on record as 100%.
